Results from patent US5910509A, “Antimicrobial agent for agriculture” (priority 1996, dated 1999).
Where two headings read alike, the source gives them in different places.

Assays:
[1] = tested on: Fungal cells; assay: Disk diffusion assay for antimicrobial activity; type: cell-based; settings: 37° C., 24 hours; for zone appearance (clear = fungicidal, hazy = fungistatic): disk diffusion; for zone of growth inhibition diameter: positive control disks 2.5 and 10 μg; for zone of inhibition at 100 µg/disc: 100 μg per 6 mm disk, Sabouraud Dextrose Agar, read-out: zone of growth inhibition diameter
Method: (§1) Fungal cells were grown overnight from a single colony in 2-5 ml Sabouraud Dextrose Broth at 37° C. 1-5×10^6 were spread onto Sabouraud Dextrose Agar plates (Difco, Detroit, Mich.). Sterile 6 mm filter disks were evenly spaced with at least about 22 mm separation on the plates. To each disk, 100 μg of a compound to be tested was applied in 5-10 μl DMSO. On each plate, two disks containing 2.5 and 10 μg, respectively, of Amphotericin B (Sigma) and two disks containing 2.5 and 10 μg, respectively, of cerulenin (Sigma) were used as positive controls. A disk containing only DMSO served as the negative control. The plates were incubated at 37° C. for 24 hours and the zone of growth inhibition about each disk was visually examined and measured. Compound A and compound B typically produced clear zones of 8-12 mm diameter. Amphotericin B typically produced a clear zone of 8-10 mm diameter. Cerulenin typically produced a hazy zone of 20-25 mm diameter. A clear zone is indicative of fungicidal activity, while a hazy zone is indicative of fungistatic activity.

[2] = tested on: C. albicans strain ATCC 10231; assay: Murine systemic model of candidiasis; type: in vivo, mice; settings: for Deaths Each Day Post Inoculation: 10 mg/kg IP
Method: In vivo activity was determined using a murine systemic model of candidiasis. Groups of 5 to 10 mice were inoculated IV with 1-2×10^7 cells of C. albicans strain ATCC 10231 (10 times the lethal dose). One hour after inoculation, the candidate antifungal compounds were delivered IP. 10 mg/kg of compound A was injected into each mouse of the compound A treatment group. Two separate treatment groups received 30 and 100 mg/kg, respectively, of compound B. Amphotericin B was injected into a positive control treatment group at 10 mg/kg. All compounds were delivered in phosphate-buffered saline (PBS) and one treatment group received PBS. Twice daily thereafter the mice were observed, the number of dead mice recorded, and the dead mice removed. After nine days, the total mortality over the period was determined.
Using the same methodology, it was determined that the maximal tolerated dose in these mice (i.e., the maximum dose that caused no deaths within 72 hours following IP administration) of compound B was in excess of 200 mg/kg. The mice treated with 2108B or Amphotericin B injected IP in […] of phosphate buffered saline, pH 7.4 had the following treatment profiles: […]

[3] = target: T1, FAS (Candida albicans, UniProt P43098); assay: FAS activity in extracts of treated C. albicans cultures (Example 10); type: cell-based
T1 construct: endogenous in cells; host or cells: Candida albicans strain 4918
Method: C. Albicans strain 4918 (available from Dr. Ronald Cihlar, Georgetown University Medical Center, Washington, D.C.) was grown in minimal medium (M63 media available from Difco, Detroit, Mich.) at 37° C. to mid-log phase. 10 μg/ml cerulenin and 25 μg/ml of compound B were added to separate cultures. At 15 minute intervals, 20 ml samples were removed and extracts prepared by mechanical extraction as in Example 1C, except that the ammonium sulfate precipitation step was not applied. The extract was diluted to 1 ml to form a solution containing 0.4M potassium phosphate, pH 7.3, 0.125 μM dithiothreitol, 50 μM acetyl-CoA, 100 μM NADPH. After incubation at 37° C. for 5 minutes, 100 μM malonyl-CoA containing 0.5 μCi [2-^14 C]-malonyl-CoA (Amersham, Arlington Heights, Ill.). After 10 minutes at 37° C., the fatty acid synthesis reaction was terminated by adding 30 μl of 60% perchloric acid (v/v) and 1 ml ethanol. Four volumes of pet. ether were added to each reaction incubation to extract the fatty acids. The relative incorporation of malonyl-CoA into fatty acids was determined by liquid scintillation counting.

[4] = tested on: Candida Albicans strain B311A; assay: MIC assay (Example 1B); type: cell-based; settings: purification fractions, result in words
Method: The fractions from the purification were tested for antifungal activity against C. albicans (strain B311A available from Dr. Paul Actor, Temple University and strains ATCC Nos. 10231 and 10261) and C. tropicalis (strain 13803). Fungi were grown in 1× yeast nitrogen broth ("YNB") medium (BBL, Cockeysville, Md.) containing 15 μg/ml aspargine and 100 μg/ml kanamycin. Prior to the assay for antifungal activity, the fungus to be tested for susceptibility was grown overnight from a single colony in 5 ml of medium at 30° C. This overnight culture was diluted 1:10 with fresh medium and grown at 37° C. for 4 hours. A volume of 5 μl of extracts, dissolved in DMSO, was added to each separate well in a series of 96-well plates. 4,000 fungal cells were then added to each plate in 95 μl of medium. The optical densities of the wells were measured and the plates incubated at 37° C. The optical densities were again measured after 24 and 48 hours. Minimum inhibitory concentrations ("MICs") for the extracts were determined using this procedure wherein the extracts were serially diluted in medium prior to mixing with the 4,000 fungal cells.
Using the procedure described in the previous paragraph, it was determined that the MICs for compound A and compound B against Candida Albicans strain B311A grown in YNB medium were 25 μg/ml and 6.25 μg/ml, respectively. […]

[5] = target: T2, FAS from S. cereviseae (Saccharomyces cerevisiae, UniProt P07149+P19097); assay: FAS inhibition assay (Example 1C); type: biochemical, Saccharomyces cerviseae; settings: result in words
T2 construct: an FAS extract from Saccharomyces cerviseae was prepared; (the yeast cells); host or cells: Fleishmans' freeze dried yeast (Saccharomyces cerevisiae); lysate, 50% ammonium sulfate precipitate, dialyzed
Method: To test the compounds for FAS inhibitory activity, an FAS extract from Saccharomyces cerviseae was prepared. Freeze dried yeast (Fleishmans' freeze dried yeast, Specialty Brands, San Francisco, Calif.) 1 g, was hydrated in 5 mls deionized water for 15 minutes at 4° C. Subsequent extraction steps were conducted at a temperature between 4° C. and 10° C., except that in the cell lysis step the temperature may have briefly exceeded these boundaries. The cells were pelleted by centrifugation; the pelleted volume was measured; and the cells were resuspended in 5 vol. (5 mls per ml cell volume) extraction buffer [125 mM KH2PO4, pH 6.6, 1 mM EDTA, 1 mM DTT, 0.7 μg/ml pepstatin (Boehringer Mannheim, Indianapolis, Ind.), 0.2 μg/ml aprotinin (Boehringer Mannheim, Indianapolis, Ind.), 0.2 μg/ml leupeptin (Boehringer Mannheim, Indianapolis, Ind.)]. The cells were again pelleted and resuspended in 2 vol. extraction buffer. […]
105 μl of FAS extract was placed in each well of a polypropylene 96 well plate (Costar Corp. Cambridge, Mass.) and multiple 5 μl dilutions of compound A, compound B or negative control solution were introduced into each of the wells. […] The relative initial reaction rates in each well were measured by measuring the decrease in optical density at 340 nm using a UV Max microtiter plate reader (Molecular Devices, Sunnyvalle, Calif.).

[6] = tested on: Candida albicans (strains ATCC 10231 and ATCC 10261); assay: Disk diffusion assay, Candida albicans; type: cell-based
Method: as §1

[7] = tested on: Candida tropicalis (strain ATCC 13803); assay: Disk diffusion assay, Candida tropicalis; type: cell-based
Method: as §1

[8] = tested on: Fusarium acuminatum (strains ATCC 32965 and ATCC 32966); assay: Disk diffusion assay, Fusarium acuminatum; type: cell-based
Method: as §1

[9] = 0.5 h, read-out: Percent Remaining FAS Activity

T1 sequence (P43098 whole entry): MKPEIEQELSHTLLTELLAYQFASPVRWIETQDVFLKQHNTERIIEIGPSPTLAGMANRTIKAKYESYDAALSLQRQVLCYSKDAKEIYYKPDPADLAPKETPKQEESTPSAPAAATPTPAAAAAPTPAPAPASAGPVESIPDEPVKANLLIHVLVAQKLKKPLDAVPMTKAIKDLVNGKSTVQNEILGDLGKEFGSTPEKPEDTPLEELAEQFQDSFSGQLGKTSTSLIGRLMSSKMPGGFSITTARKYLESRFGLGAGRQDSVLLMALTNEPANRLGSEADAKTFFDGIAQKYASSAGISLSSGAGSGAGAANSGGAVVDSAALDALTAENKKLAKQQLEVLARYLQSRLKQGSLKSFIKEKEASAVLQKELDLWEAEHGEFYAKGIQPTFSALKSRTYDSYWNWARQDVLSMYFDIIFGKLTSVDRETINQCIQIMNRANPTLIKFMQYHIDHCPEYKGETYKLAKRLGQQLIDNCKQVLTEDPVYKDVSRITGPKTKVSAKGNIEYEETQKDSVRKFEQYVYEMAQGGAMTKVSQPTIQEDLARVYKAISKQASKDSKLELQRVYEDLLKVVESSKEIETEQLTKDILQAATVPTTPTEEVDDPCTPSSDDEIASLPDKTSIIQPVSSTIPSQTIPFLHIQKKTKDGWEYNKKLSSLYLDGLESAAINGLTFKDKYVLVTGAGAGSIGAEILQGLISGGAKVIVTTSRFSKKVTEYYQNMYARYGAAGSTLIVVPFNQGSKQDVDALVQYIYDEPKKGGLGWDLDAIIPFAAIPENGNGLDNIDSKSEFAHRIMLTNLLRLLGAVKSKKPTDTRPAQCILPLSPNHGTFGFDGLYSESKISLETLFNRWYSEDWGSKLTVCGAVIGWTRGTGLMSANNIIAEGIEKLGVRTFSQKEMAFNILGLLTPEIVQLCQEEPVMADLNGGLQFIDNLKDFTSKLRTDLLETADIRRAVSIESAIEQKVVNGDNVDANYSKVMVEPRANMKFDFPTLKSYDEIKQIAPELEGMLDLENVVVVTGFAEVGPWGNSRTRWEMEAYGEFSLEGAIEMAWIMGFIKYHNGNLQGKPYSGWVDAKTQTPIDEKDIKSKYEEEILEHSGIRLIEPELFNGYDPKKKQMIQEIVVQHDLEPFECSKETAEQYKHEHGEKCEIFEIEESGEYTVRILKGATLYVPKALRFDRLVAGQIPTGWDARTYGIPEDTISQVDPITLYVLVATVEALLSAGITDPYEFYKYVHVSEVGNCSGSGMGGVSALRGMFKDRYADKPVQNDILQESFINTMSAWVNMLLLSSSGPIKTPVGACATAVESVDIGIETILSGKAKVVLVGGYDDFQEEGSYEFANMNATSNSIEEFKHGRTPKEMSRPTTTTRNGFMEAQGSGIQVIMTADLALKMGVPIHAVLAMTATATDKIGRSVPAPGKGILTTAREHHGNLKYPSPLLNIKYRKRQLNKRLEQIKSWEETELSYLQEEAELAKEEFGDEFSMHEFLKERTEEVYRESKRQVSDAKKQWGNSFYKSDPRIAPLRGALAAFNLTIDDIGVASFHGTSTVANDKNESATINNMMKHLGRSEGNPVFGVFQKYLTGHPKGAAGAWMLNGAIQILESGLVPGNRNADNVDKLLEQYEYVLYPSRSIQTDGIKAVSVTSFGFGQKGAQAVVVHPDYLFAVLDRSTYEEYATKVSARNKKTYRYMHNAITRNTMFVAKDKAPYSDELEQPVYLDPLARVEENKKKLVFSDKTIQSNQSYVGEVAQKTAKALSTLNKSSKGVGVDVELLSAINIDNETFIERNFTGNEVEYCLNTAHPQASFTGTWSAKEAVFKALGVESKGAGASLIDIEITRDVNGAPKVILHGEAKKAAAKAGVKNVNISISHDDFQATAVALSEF
T1 sequence (P34731 whole entry partner): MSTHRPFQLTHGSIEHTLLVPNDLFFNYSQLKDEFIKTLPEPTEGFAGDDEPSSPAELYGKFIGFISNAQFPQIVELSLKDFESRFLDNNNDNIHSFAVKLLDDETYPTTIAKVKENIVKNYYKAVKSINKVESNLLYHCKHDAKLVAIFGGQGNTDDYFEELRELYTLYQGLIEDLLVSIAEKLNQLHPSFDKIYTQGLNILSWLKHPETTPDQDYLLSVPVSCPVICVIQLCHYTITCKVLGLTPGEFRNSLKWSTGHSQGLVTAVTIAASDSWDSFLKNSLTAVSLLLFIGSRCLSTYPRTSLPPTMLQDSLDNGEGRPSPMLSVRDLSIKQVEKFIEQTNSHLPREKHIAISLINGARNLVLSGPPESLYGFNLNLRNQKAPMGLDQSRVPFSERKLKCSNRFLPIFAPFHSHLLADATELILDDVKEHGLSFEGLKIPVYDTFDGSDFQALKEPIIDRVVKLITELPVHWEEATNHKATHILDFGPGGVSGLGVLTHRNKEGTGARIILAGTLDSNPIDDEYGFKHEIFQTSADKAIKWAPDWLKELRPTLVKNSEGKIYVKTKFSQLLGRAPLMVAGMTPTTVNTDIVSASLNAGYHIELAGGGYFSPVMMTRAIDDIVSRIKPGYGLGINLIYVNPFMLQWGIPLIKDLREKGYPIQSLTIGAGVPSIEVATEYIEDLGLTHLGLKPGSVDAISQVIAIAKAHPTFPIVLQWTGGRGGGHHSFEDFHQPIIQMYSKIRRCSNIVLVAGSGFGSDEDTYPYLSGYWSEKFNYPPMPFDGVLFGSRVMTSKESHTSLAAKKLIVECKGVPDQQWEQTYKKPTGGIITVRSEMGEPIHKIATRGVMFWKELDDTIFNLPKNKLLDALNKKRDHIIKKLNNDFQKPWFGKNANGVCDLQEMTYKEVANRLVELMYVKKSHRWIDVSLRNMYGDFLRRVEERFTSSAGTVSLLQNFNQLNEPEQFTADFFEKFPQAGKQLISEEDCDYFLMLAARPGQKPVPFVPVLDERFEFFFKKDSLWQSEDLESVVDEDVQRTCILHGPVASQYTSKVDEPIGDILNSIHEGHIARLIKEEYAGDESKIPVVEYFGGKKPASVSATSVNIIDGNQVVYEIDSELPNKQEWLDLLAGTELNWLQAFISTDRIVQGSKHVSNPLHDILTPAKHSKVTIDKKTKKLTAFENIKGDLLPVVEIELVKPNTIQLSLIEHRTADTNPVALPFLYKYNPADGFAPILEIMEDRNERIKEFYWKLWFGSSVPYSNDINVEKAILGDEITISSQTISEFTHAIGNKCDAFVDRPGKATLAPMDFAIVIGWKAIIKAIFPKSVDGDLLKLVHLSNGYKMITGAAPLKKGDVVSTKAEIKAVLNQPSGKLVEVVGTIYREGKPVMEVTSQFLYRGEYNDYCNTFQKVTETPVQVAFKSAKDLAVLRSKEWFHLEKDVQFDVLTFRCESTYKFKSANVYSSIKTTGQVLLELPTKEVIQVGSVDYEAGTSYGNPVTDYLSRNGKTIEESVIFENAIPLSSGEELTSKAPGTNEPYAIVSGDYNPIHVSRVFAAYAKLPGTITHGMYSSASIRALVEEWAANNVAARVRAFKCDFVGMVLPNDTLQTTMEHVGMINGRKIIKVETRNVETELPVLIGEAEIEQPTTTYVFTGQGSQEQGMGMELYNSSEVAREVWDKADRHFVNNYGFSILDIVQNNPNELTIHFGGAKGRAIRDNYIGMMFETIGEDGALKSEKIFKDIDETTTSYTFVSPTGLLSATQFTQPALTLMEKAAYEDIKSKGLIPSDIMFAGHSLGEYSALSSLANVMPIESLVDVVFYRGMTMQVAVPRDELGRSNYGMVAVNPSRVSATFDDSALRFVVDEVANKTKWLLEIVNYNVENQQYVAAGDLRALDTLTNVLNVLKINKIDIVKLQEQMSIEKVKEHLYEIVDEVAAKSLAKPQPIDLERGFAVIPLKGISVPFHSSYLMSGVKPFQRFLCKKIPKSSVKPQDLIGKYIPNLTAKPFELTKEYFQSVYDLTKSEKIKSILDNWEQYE

| Structure (SMILES) | zone appearance (clear = fungicidal, hazy = fungistatic) [1] | zone of growth inhibition diameter [1] | activity in the MIC assay of Example 1B [4] | activity in the enzyme inhibition assay of Example 1C [5] | zone of inhibition at 100 µg/disc [1] [mm] | antimicrobial activity [6] | antimicrobial activity [7] | antimicrobial activity [8] | also measured |
| --- | --- | --- | --- | --- | --- | --- | --- | --- | --- |
| C[C@@H]1[C@H](O)[C@@H](C)/C=C/C=C/C=C/C=C/C=C/C=C/C=C/[C@H](O[C@@H]2O[C@H](C)[C@@H](O)[C@H](N)[C@@H]2O)C[C@@H]2O[C@](O)(C[C@@H](O)C[C@@H](O)[C@H](O)CC[C@@H](O)C[C@@H](O)CC(=O)O[C@H]1C)C[C@H](O)[C@H]2C(=O)O [Amphotericin B] | clear zone | 8-10 mm | – | – | – | – | – | – | % Survival ([2]; 10 mg/kg IP one hour after inoculation, nine days): 80%; Deaths Each Day Post Inoculation ([2]; day 0): 0; Deaths Each Day Post Inoculation ([2]; day 1): 0; Deaths Each Day Post Inoculation ([2]; day 3): 0; Deaths Each Day Post Inoculation ([2]; day 5): 0; Deaths Each Day Post Inoculation ([2]; day 6): 0; Deaths Each Day Post Inoculation ([2]; day 7): 0; Deaths Each Day Post Inoculation ([2]; day 8): 0; Deaths Each Day Post Inoculation ([2]; day 9): 0 |
| C/C=C/C/C=C/CCC(=O)[C@H]1O[C@H]1C(N)=O [Cerulenin, cerulenin] | hazy zone | 20-25 mm | – | – | – | – | – | – | remaining activity at 10 µg/mL ([3]; 0.25 h, read-out: Percent Remaining FAS Activity): 20%; remaining activity at 10 µg/mL [3, 9]: 12% |
| C/C=C/C=C/C=C/C1=CC2=CC(=O)C(C)(OC(=O)CC(C)O)C(=O)C23OC3O1 (centres unmarked) [Compound A] | clear zones | – | retained activity | retained activity | 8 to 12 | had antimicrobial activity | had antimicrobial activity | had antimicrobial activity | – |
| C/C=C/C=C/C=C/C1=CC2=CC(=O)C(C)(OC(=O)CC(C)O)C(=O)C2=CO1 (centres unmarked) [Compound B] | clear zones | – | retained activity | not directly inhibitory of FAS | 8 to 12 | had antimicrobial activity | had antimicrobial activity | had antimicrobial activity | FAS activity of cell extracts made after exposure [3]: markedly reduced FAS activity; remaining activity at 25 µg/mL [3, 9]: 40% |
| C/C=C/C=C/C=C/C1=CC2=CC(=O)C(C)(OC(=O)CC(O)CC(C)O)C(=O)C23OC3O1 (centres unmarked) [patulodin] | – | – | – | – | 7 | – | – | – | – |
